# According to US6461997B1, “Triazole sulfones having herbicidal activity” (Monsanto Technology LLC, priority 1999, dated 2002):
# Legend:
# [1] = tested on: IPOSS (annual morningglory); test: Pre-emergence herbicidal activity, warm season; format: in vivo, Ipomoea spp.; details: Ipomoea, pre-emergence application, read-out: Percent inhibition, weed IPOSS
# Description: (§1) Tables 5 to 8 summarize results of tests conducted as described below to determine the pre-emergence herbicidal activity, in the form of a GR80 value, of illustrative compounds of this invention. […] Compounds of the invention were typically applied at rates of 300, 100, 30, and 10 g/ha. Where herbicidal activity was evident but 80% inhibition was not achieved at the highest rate tested, an asterisk (*) is shown in the following tables.
# (§2) The pre-emergence tests were conducted by the following procedure. Topsoil was sieved to pass through a 1.27 cm screen. Fertilizer was added to the topsoil and the mixture was then sterilized by heating. The topsoil mixture was placed in a pot and compacted to a depth of 1.0 to 1.25 cm from the top of the pot. Seeds of each of several monocotyledonous and dicotyledonous annual plant species were placed on top of the soil. Additional soil was subsequently placed over the seeds to level-fill the pot. A known amount of each test compound dissolved or suspended in an appropriate organic solvent was diluted with a 50:50 mix of acetone and water and applied to the surface of the soil. After treatment the plants were placed in a greenhouse where they received 0.64 cm of overhead irrigation. All subsequent watering consisted of a light overhead mist and/or subirrigation as needed for germination and growth. Tables 5 and 6 below relate to warm season plant species which were placed after pre-emergence treatment in a greenhouse with a 30/21° C. day/night temperature regime. Tables 7 and 8 below relates to cool season plant species placed after pre-emergence treatment in a greenhouse or growth chamber with an 18/13° C. day/night temperature regime.
# (§3) Approximately 14 days after planting and treating, the plants were observed and herbicidal efficacy recorded as percent inhibition by comparison with untreated plants.
# (§4) The plant species usually regarded as weeds which were utilized in the tests are identified in the tables below according to the following legend, in which “d” indicates a dicotyledonous species and “m” a monocotyledonous species. All monocotyledonous species included in the tests herein are grasses.
# [2] = tested on: KCHSC (kochia); test: Post-emergence herbicidal activity, cool season; format: in vivo, Kochia scoparia; details: abraded plants sprayed; GR80 = lowest tested rate (300, 100, 30, 10 g/ha) with 80% or greater inhibition; approx. 14 days after treatment; 18/13° C.
# Description: (§5) In another set of tests, the post-emergence activity of compounds of this invention was evaluated on the cool season species listed above. The following procedure was used.
# (§6) A pre-prepared topsoil mixture (described above) was placed in a pot and compacted to a depth of 1.0 to 1.25 cm from the top of the pot. Seeds of each of several monocotyledonous and dicotyledonous annual plant species were placed on top of the soil. The seeds were covered with a mixture of 50% topsoil and 50% Rediearth™ in sufficient quantity to level-fill the pots. The pots were then placed on a greenhouse bench and subirrigated as needed.
# (§7) When plants growing from the seeds had emerged and reached a suitable growth stage for post-emergence treatment, typically 9 to 14 days after planting, above-ground parts of the plants were subjected to a pre-treatment involving abrasion to create greater opportunity for foliar uptake of subsequently applied compounds. Abrasion was performed using garnet 200w particles applied with a Sears Craftsman hand-held sandblaster operated at approximately 850 kPa (50 psig) pressure. […]
# (§8) After treatment the plants were placed in a greenhouse with an 18/13° C. day/night temperature regime and were subsequently watered as needed for growth. Approximately 14 days after treatment, the plants were observed and herbicidal efficacy recorded as percent inhibition by comparison with control plants. […]
# [3] = tested on: VERPE (creeping speedwell); test: Post-emergence herbicidal activity, cool season; format: in vivo, Veronica persicaria; details: abraded plants sprayed; GR80 = lowest tested rate (300, 100, 30, 10 g/ha) with 80% or greater inhibition; approx. 14 days after treatment; 18/13° C.
# Description: as §5, §6, §7, §8
# [4] = tested on: corn (ZEAMX); test: Selectivity test, pre-emergence, warm season crop; format: in vivo; details: Zea mays, pre-emergence application, read-out: Percent inhibition, crop ZEAMX
# Description: as §2, §3
# (§9) Additional pre-emergence and PPI tests were conducted by the procedures described above, on warm and cool season weed species in the presence of crop species, to assess herbicidal selectivity. Crop species included in warm season tests were corn (Zea mays, ZEAMX), rice (Oryza sativa, ORYSA) and soybean (Glycine max, GLYMX). Crop species included in cool season tests were wheat (Triticum aestivum, TRZAW), barley (Hordeunm vulgare, HORVX) and oilseed rape (Brassica napus, BRSNS).
# (§10) Tables 15 and 16 relate to pre-emergence and PPI tests respectively on warm season species. Table 17 relates to pre-emergence tests on cool season species.
# [5] = tested on: rice (ORYSA); test: Selectivity test, pre-emergence, warm season crop; format: in vivo; details: Oryza sativa, pre-emergence application, read-out: Percent inhibition, crop ORYSA
# Description: as §2, §3, §9, §10
# [6] = tested on: soybean (GLYMX); test: Selectivity test, pre-emergence, warm season crop; format: in vivo; details: Glycine max, pre-emergence application, read-out: Percent inhibition, crop GLYMX
# Description: as §2, §3, §9, §10
# [7] = tested on: SEBEX; test: Pre-emergence herbicidal activity, warm season (selectivity test, Table 15); format: in vivo; details: pre-emergence application, read-out: Percent inhibition, weed SEBEX
# Description: as §2, §3, §9, §10
# [8] = tested on: SEBEX; test: Pre-plant incorporated (PPI) herbicidal activity, warm season; format: in vivo; details: PPI application, read-out: Percent inhibition SEBEX
# Description: as §9
# [9] = tested on: AEGCY (jointed goatgrass); test: Pre-emergence herbicidal activity, cool season; format: in vivo, Aegilops cylindrica; details: GR80 = lowest tested rate (300, 100, 30, 10 g/ha) with 80% or greater inhibition; approx. 14 days after treating; 18/13° C.
# Description: as §1, §2, §3, §4
# [10] = tested on: SASKR (russian thistle); test: Post-emergence herbicidal activity, cool season; format: in vivo, Salsola kali; details: abraded plants sprayed; GR80 = lowest tested rate (300, 100, 30, 10 g/ha) with 80% or greater inhibition; approx. 14 days after treatment; 18/13° C.
# Description: as §5, §6, §7, §8
SMILES,inhibition at 10 g/ha [1] [%],inhibition at 30 g/ha [1] [%],inhibition at 100 g/ha [1] [%],inhibition at 300 g/ha [1] [%],inhibition at 900 g/ha [1] [%],Post-emergence activity (GR80) KCHSC [2] [g/ha],inhibition at 10 g/ha [4] [%],inhibition at 30 g/ha [4] [%],inhibition at 100 g/ha [4] [%],inhibition at 300 g/ha [4] [%],inhibition at 900 g/ha [4] [%],inhibition at 10 g/ha [5] [%],inhibition at 30 g/ha [5] [%],inhibition at 100 g/ha [5] [%],inhibition at 900 g/ha [5] [%],inhibition at 10 g/ha [6] [%],inhibition at 30 g/ha [6] [%],inhibition at 100 g/ha [6] [%],inhibition at 900 g/ha [6] [%],inhibition at 10 g/ha [7] [%],other results
"CCN(CC)C(=O)n1cnc(S(=O)(=O)C(F)(F)Br)n1 [Example 1, 3-(bromodifluoromethylsulfonyl)-1-(N,N-diethylcarbamoyl)-1,2,4-triazole]",0,0,0,0,0,100,0,0,0,0,10,0,0,0,10,0,0,0,0,0,Post-emergence activity (GR80) VERPE [3]: 300 g/ha; inhibition at 30 g/ha [7]: 0%; inhibition at 100 g/ha [7]: 0%; inhibition at 300 g/ha [7]: 0%; inhibition at 900 g/ha [7]: 0%; inhibition at 10 g/ha [8]: 0%; inhibition at 30 g/ha [8]: 0%; inhibition at 100 g/ha ([8]; 100 g/ha): 0%; inhibition at 300 g/ha [8]: 0%; inhibition at 900 g/ha [8]: 20%
CCN(CC)C(=O)n1cnc(S(=O)(=O)C(F)(F)C(F)(F)Br)n1 [Example 4],–,–,–,–,–,–,–,–,–,–,–,–,–,–,–,–,–,–,–,–,"Pre-emergence activity (GR80) AEGCY [9]: * (activity observed, at least at highest rate, but <80% inhibition)"
"CCN(CC)C(=O)n1cnc(S(=O)(=O)C(F)F)n1 [Example 15, 1-(N,N-diethylcarbamoyl)-3-(difluoromethylsulfonyl)-1,2,4-triazole]",0,0,0,0,0,100,0,0,0,0,0,0,0,0,0,0,0,0,10,0,Post-emergence activity (GR80) SASKR [10]: 100 g/ha; inhibition at 300 g/ha ([5]; 300 g/ha): 0%; inhibition at 300 g/ha ([6]; 300 g/ha): 0%; inhibition at 30 g/ha [7]: 0%; inhibition at 100 g/ha [7]: 0%; inhibition at 300 g/ha [7]: 0%; inhibition at 900 g/ha [7]: 35%; inhibition at 10 g/ha [8]: 0%; inhibition at 30 g/ha [8]: 0%; inhibition at 300 g/ha [8]: 0%; inhibition at 900 g/ha [8]: 50%
